Test [1] deals with P. aeruginosa ATCC 27853. In words: Intrinsic MIC assay (CLSI broth microdilution). It is filed as cell-based. As to conditions: Pseudomonas aeruginosa, ATCC27853. On the procedure:
(§1) MIC assays were conducted in accordance with Clinical and Laboratory Standards Institute (CLSI) guidelines for broth microdilution.
The intrinsic MIC of the experimental EPIs was tested with the method described. The 2-fold serial dilution begins with 100 μg/mL of tested compound in the first column of the 96-well plates. The following Gram-negative bacterial strains were included in these assays: […]

Test [2] concerns Pseudomonas aeruginosa ATCC 27853. The test is described as follows: Standard EPI assay (MIC of levofloxacin or cefepime in absence and presence of the EPI). As to conditions: P. aeruginosa ATCC 27853. The format is cell-based. Here is the method:
as §1
(§2) The EPI assay for the purposes of these studies represents a MIC assay in which the MIC of the antibiotic against the bacteria is tested in the presence of an experimental efflux pump inhibitor (EPI). […] Using serial dilutions of the EPI, its enhancement of antibiotic activity was then evaluated. […] For the evaluation of the efficacy of an EPI against bacteria that were pre-exposed to an antibiotic, the inoculum of bacteria that used was developed from a bacterial culture isolated as a single colony following exposure at ½ the MIIC of the antibiotic (so as to induce efflux pump expression), was to be used in combination with the EPI.
In our standard EPI assay, the MIC of the test antibiotic is determined in the absence and presence of sub-inhibitory concentrations of the EPI. Initially, the sub-inhibitory concentration used was ½×MIC of the EPI. […] Similar methodology was employed to examine the synergy with Escherichia coli ATCC 25922 in the presence of varied concentrations of these EPIs using clarithromycin as the antibiotic.

The test system of test [3] is P. aeruginosa [ATCC 27853]. In words: Mouse septicemia model of infection. As to conditions: experiment #512, cefepime, 10 mg/ml b.i.d., 250 ul. It is filed as in vivo, Swiss Webster female mice. Here is the method:
A general method for the in vivo assessment of bacterial EPIs is complicated by the fact that that both the antibiotic and the EPI need to be present for synergy to be achieved. A general method was discovered that has proven to be effective in establishing the relative efficacy of bacterial EPIs in a mouse septicemia model. The bacterial EPI is administered initially intravenously to mice with septicemia, followed 5 minutes later by the intravenous administration or oral administration of the antibiotic. A second administration of the EPI is then administered subcutaneously after an additional 5 minutes to act as a booster, followed by the final administration of the antibiotic either intravenously or orally after the second administration of the EPI. […] In a few instances, a second regiment of both EPI and antibiotic as administered on day 1 was required after 24 hours to affect cures.
Determination of the in vivo efficacy of bacterial efflux pump inhibitors (EPIs) can be efficiently determined using a mouse septicemia model of infection. The systemic infection is initiated by a 500 ul intraperitoneal injection of an inoculum containing bacteria (such as P. aeruginosa [ATCC 27853]) at a concentration of approximately 5×10^5 cells in 5% mucin in Swiss Webster female mice. […]

In test [4] the test system is P. aeruginosa ATCC 27853 pre-exposed to cefepime. In words: Pre-exposure bacterial EPI assay. It is filed as cell-based, Pseudomonas aeruginosa. Here is the method:
as §2
The principle underlying this pre-exposure is that exposure of the bacteria to sub-inhibitory concentrations of the test antibiotic will induce expression of efflux pumps, if any, and may represent the scenario in vivo more accurately.

Counter-ions that a name gives are not always drawn.

Take `CC(C)C(N)CC[C@H](N)CNC(=O)c1cc2ccc(-c3ccc(F)cc3)cc2[nH]1` (stereo partly drawn) [Example 6, N-((2S)-2,5-diamino-6-methylheptyl)-6-(4-fluorophenyl)-1H-indole-2-carboxamide dihydrochloride]: 25 µg/mL was the least that counted as inhibitory in test [1] (MIC). Further, in test [2] (6.25 μg/mL of the EPI), the “MIC of levofloxacin in the presence of EPI” value worked out at 0.063 µg/mL and the “reduction of the MIC of levofloxacin relative to the absence of EPI” value is 32 fold. In addition, in test [2] (12.5 μg/mL of the EPI), the “MIC of cefepime in the presence of EPI” value amounted to 1.0 µg/mL and the “decrease of the MIC of cefepime” value turned out to be 2 fold. Further, in test [3] (Example 6, 3.0 mg/ml b.i.d.), the “% Survival (72 hr) Antibiotic + EPI” value is listed as 100%.
As for `NCCC[C@@H](N)CNC(=O)c1cc2ccc(-c3ccc(F)cc3)cc2[nH]1` [Example 20, (R)-5-(6-(4-fluorophenyl)-1H-indole-2-carboxamido)pentane-1,4-diaminium chloride], in test [4] (6.25 μg/mL of the EPI), the “MIC of cefepime against cefepime-exposed P. aeruginosa in the presence of EPI” value was found to be 0.5 µg/mL and the “reduction of the MIC of cefepime against cefepime-exposed P. aeruginosa” value worked out at 8 fold.
Turning to `CO/N=C(\C(=O)N[C@@H]1C(=O)N2C(C(=O)[O-])=C(C[N+]3(C)CCCC3)CS[C@H]12)c1csc(N)n1` [cefepime, reference compound], the MIC in test [4] (Pseudomonas aeruginosa, ATCC27853, read-out: MIC of cefepime against P. aeruginosa pre-exposed to cefepime) came out at 16 µg/mL. In addition, the “% Survival (72 hr) Antibiotic Only” value in test [3] (mice infected with P. aeruginosa) came out at 25%.
Take `C[C@H]1COc2c(N3CCN(C)CC3)c(F)cc3c(=O)c(C(=O)O)cn1c23` [levofloxacin, reference compound]: in test [2] (Pseudomonas aeruginosa, ATCC27853), the MIC was 1 µg/mL.

The MIC is the smallest concentration in the dilution series that meets the test's criterion for growth inhibition.

These data come from patent US11993571B2, “Indole derivatives as efflux pump inhibitors” (RUTGERS, THE STATE UNIVERSITY OF NEW JERSEY, priority 2017, dated 2024).
